Data on one compound can be found in the NIST ThermoML archive (doi:10.1016/j.jct.2016.06.020).

A short description of series [1]: Molar enthalpy of transition or fusion. The settings on record: Crystal; DSC.
The conditions of series [2]: Crystal; DTA.

Numbers after ± are expanded uncertainties.

With `CCN1C(=O)N(C)[C@@H]2[C@H]1N(C)C(=O)N2CC` (racemic), the “Molar enthalpy of transition or fusion” value in series [1] came out at 4.97 ± 0.167 kcal/mol. The Normal melting temperature in series [2] worked out at 118.6 ± 0.6 °C.
